In BindingDB's records for doi:10.1016/j.chembiol.2014.09.011 (Astrazeneca R&D, 2014):

Tests used:
Assay in all cases: AMPD Enzymatic Activity Assay
Details in all cases: pH 7.4
AMP deaminase 1 [1] = target: T1, AMP deaminase 1 (Rattus norvegicus, UniProt P10759)
T1 sequence (P10759 whole entry): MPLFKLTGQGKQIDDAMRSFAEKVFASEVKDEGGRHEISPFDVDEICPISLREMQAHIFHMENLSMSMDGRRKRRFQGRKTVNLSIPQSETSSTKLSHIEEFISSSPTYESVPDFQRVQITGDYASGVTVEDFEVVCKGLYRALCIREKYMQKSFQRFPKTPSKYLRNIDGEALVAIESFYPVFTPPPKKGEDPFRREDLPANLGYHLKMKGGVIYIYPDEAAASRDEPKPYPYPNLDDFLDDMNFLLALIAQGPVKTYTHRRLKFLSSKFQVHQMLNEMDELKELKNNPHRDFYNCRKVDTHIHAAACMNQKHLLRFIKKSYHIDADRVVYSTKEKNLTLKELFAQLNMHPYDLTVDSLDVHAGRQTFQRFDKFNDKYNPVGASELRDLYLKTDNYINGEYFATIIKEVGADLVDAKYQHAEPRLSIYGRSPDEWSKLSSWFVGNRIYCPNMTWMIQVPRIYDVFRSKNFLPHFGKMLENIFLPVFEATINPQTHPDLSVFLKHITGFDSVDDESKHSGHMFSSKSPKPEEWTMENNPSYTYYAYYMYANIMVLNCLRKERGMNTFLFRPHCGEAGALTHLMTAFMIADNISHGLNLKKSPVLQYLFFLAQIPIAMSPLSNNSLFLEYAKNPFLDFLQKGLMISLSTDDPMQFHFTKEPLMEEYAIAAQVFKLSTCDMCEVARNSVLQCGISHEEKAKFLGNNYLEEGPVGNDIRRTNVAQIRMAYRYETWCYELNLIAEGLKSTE
Protocol: (§1) AMPD1 was added to buffer A (50 mM HEPES, 150 mM KCl, 5 mM MgCl2, and 0.5 mMglutathione [pH 7.4]) to a concentration of 10 nM. A substrate mix consistingof 2mMNADPH, 6mMa-ketoglutarate, 8mMAMP, and 15 U GDH was prepared in buffer A. Substrate mix ([…]) was added to the plate, followed by centrifugation and incubation for 1 hr. Detection was by absorbance at 340 nm following the conversion of NADPH to NADP+. Recombinant AMPD enzyme activity assays were performed in a 384-well format using the same conditions as described above, except the assay volume was […] and the AMP concentration for the AMPD2 assay was 8 mM. Different AMPD enzyme concentrations were used to have linear reactions: hAMPD1 (4 nM), hAMPD2 (38 nM), hAMPD3 (1 nM), rAMPD1 (116 nM), rAMPD2 (53 nM), rAMPD3 (31 nM), and mAMPD1 (816 nM).

AMP deaminase 2 = target: T2, AMP deaminase 2 (Rattus norvegicus, UniProt Q02356)
T2 sequence (Q02356 whole entry): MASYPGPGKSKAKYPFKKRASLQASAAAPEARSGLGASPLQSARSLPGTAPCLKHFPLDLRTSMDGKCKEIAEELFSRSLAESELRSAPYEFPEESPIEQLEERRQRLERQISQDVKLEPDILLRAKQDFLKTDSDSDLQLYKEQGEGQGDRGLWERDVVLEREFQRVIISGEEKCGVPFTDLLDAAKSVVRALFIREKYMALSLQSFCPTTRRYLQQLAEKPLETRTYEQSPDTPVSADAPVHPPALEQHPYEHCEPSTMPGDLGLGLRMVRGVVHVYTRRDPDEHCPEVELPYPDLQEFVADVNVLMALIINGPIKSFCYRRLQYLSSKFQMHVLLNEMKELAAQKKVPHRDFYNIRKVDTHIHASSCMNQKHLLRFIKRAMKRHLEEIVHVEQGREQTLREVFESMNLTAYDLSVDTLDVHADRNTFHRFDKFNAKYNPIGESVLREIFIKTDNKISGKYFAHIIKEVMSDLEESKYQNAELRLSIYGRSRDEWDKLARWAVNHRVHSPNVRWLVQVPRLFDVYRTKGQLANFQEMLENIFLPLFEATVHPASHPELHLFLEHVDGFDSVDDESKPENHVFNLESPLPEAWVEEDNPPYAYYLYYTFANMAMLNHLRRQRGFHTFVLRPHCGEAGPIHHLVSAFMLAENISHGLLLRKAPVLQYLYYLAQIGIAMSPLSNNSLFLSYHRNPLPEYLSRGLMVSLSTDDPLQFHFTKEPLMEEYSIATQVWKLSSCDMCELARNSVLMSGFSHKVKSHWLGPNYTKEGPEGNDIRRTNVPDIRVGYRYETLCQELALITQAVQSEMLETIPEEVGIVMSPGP
Protocol: as §1

AMP deaminase 1 [2] = target: T3, AMP deaminase 1 (Mus musculus, UniProt Q3V1D3)
T3 sequence (Q3V1D3 whole entry): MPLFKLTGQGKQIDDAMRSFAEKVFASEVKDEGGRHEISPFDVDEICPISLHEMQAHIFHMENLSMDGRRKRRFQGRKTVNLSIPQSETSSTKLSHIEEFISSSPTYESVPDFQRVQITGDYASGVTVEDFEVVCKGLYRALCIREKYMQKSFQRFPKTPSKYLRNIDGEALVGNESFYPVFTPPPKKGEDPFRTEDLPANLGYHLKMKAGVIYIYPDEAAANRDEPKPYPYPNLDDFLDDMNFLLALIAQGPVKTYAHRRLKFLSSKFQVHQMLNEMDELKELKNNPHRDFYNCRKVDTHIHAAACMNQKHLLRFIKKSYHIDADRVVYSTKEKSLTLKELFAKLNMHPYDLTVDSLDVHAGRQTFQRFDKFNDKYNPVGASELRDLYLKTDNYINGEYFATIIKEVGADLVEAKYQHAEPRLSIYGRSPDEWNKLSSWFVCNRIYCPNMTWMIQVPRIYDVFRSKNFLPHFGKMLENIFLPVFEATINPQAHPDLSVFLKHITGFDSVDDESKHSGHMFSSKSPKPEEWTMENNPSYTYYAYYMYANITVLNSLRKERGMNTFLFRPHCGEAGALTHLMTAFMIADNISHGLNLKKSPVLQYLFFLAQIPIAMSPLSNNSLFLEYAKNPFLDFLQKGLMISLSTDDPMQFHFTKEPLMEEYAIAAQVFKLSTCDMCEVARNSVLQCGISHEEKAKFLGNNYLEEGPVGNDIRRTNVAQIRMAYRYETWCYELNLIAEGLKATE
Protocol: as §1

AMP deaminase 1 [3] = target: T4, AMP deaminase 1 (Homo sapiens, UniProt P23109)
T4 sequence (P23109 whole entry): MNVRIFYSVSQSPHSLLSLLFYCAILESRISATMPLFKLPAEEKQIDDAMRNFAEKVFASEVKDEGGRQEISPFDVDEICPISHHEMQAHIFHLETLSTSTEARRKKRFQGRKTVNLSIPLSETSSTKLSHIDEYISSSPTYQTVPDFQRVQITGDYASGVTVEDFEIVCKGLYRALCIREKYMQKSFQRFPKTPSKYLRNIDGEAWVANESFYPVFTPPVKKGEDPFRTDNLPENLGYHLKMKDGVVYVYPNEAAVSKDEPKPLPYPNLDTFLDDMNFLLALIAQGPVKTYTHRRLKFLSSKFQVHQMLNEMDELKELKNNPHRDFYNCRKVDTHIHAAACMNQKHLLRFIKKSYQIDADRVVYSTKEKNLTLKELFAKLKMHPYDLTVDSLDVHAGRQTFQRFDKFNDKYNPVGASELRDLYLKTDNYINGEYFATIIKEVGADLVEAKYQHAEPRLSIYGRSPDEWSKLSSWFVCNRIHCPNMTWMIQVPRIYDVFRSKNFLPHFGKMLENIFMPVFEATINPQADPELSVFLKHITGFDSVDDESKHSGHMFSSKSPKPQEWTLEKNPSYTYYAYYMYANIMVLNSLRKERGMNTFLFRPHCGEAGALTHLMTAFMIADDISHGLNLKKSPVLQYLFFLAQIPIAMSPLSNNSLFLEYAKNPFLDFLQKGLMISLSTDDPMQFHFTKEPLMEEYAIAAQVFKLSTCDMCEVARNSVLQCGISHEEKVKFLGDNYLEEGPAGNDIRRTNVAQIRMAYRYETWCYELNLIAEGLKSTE
Protocol: as §1

| IC50 (AMP deaminase 1 [1]) [nM] | IC50 (AMP deaminase 2) [nM] | IC50 (AMP deaminase 1 [2]) [nM] | IC50 (AMP deaminase 1 [3]) [nM] | Structure (SMILES) |
| --- | --- | --- | --- | --- |
| 20 | 300 | 20 | 24 | COc1cc(-c2ccc(CN[C@H](C)c3cccc4ccncc34)cc2)ccc1C(=O)O [4-[4-({[(1R)-1-(isoquinolin-8-yl)ethyl]amino}methyl)phenyl]-2-methoxybenzoic acid (Compound 4)] |
| – | – | – | 620 | C[C@@H](NCc1ccc(-c2ccc(C(=O)O)cn2)cc1)c1cccc2ccccc12 [6-[4-({[(1R)-1-(naphthalen-1-yl)ethyl]amino}methyl)phenyl]pyridine-3-carboxylic acid (Compound 1)] |
